Where two headings read alike, the source gives them in different places.
Columns and labels:
[1] = test system: Immortalised Mouse Dermal Fibroblasts (MDFs); assay: Cellular assay: inhibition of TSI induced necroptosis, CellTitre-Glo viability; conditions: Mus musculus, Fibroblast, MDF, 3 hours TSI cocktail, read-out: Inhibition of TSI-induced necroptosis (IC50 cell-based assay) in MDF
Procedure: Cellular Assay: Screening Compounds for Inhibition of TSI Induced Necroptosis in, 384 Well Plate Format.
• Cell Line ID: Immortalised Mouse Dermal Fibroblasts (MDFs). • Cell Concentration (cells/well): Final cell density is 2200 cells per well. • Cell growth medium: DMEM medium+7.4% Fetal Bovine Serum (FBS). Cells are cultured in Corning 150 cm^2 tissue culture flasks with vented caps at 37° C./10% CO2. • Incubation: Plates were incubated for 30 minutes following addition of compounds and then 3 hours incubation with death stimuli (TSI cocktail) at 37° C./10% CO2 in a humidified incubator. • Compound concentration: 36 μM starting concentration, 1:3 dilution, 10 point • DMSO final concentration (% v/v): 0.3%. Compounds in TSI Cocktail (T: TNF; S: Smac Mimetic; I: IDN-6556) and their Final Concentrations: • rhTNF (100 ng/ml) • Compound a (500 nM)—Smac Mimetic, Tetralogic and SYNthesis Med Chem • IDN-6556 (10 μM)—Selleckchem (S7775)
The cellular assay was carried out according to the following steps: • 1. Each well was prepared by sequential addition of: • a. 40 μL of cell suspension (5.5×10^4 cells/mL) was added to each well to provide a final cell concentration of 2,200 cells per well. • b. After 24 hours, DMSO (control; columns 1-2 and 23-24) or compound in DMSO—addition was performed using acoustic transfer of nL volumes of stock compound to give final test concentrations of 36, 12, 4, 1.3, 0.44, 0.148, 0.049, 0.016, 0.005 and 0.002 μM. All wells were backfilled with DMSO to a final total volume in the well of 100 nL. • c. Following compound/DMSO addition in step (b), Plates were incubated for 30 minutes at 37° C./10% CO2 in a humidified incubator and then 10 μL of 5×TSI cocktail (except to positive controls; columns 2 and 24) was added to each well. • 2. After 3 hours, plate was removed from the 37° C. incubator and equilibrated to room temperature for 15 minutes. • 3. 15 μL of room temperatured CellTitre-Glo2™ (Promega™) was added to each well. • 4. Shook plates for 2 minutes (˜600 rpm) and incubated at room temperature for 15 minutes to allow signal to stabilise. • 5. Read luminescence readout on a plate reader.
Percent viability was calculated for each compound according to equation (2):
[formula] • Wherein RawData is the readout of any cell containing a compound of the invention.
TA is the total activity provided by the luminescence readout from DMSO only wells (columns 2 and 24)=100% viability.
NSA is the non-specific activity provided by DMSO+TSI wells (columns 1 and 23)=0% viability • Curve fitting: 10-point titration curves are fitted with the 4-parameter logistic nonlinear regression model and the IC50 reported is the inflection point of the curve • Analysis: Data was loaded into Dotmatics™ and visualised using the Tibco@ • Spotfire™ software. 10 point titration curves were fitted with the 4 parameter logistic nonlinear regression model and the IC50 reported reflect the inflection point of the curve for curve fitting.
Assay involving the TSI cocktail (T: TNF; S: Smac mimetic; I: IDN-6556): TSI treatment ensures that cells specifically undergo necroptotic cell death. TNF activates the TNF receptor, Smac mimetic directs the signal away from proinflammatory signaling and toward the RIPK1/RIPK3-mediated cell death pathways, and IDN-6556 (Caspase inhibitor) ensures that the apoptotic response is blocked leaving only the programmed necrosis response. The compounds' activity (solution in DMSO) tested in this TSI-induced assay was evaluated by determining the number of viable cells in culture by measuring the amount of ATP present as measured by CelltiterGlo.

[2] = target: human MLKL (full length) (Homo sapiens (Human), UniProt Q8NB16); assay: KINOMEscan binding assay, human MLKL (full length); conditions: hMLKL, Table 25; read-out: MLKL (KD)
In short: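 Compound dilutions (11 points, 3-fold, mostly from 30,000 nM, 1% DMSO final) competed with immobilized ligand for DNA- or phage-tagged protein, and bead-bound protein was measured by qPCR. Kd values came from Hill-equation fits with slope −1 (Levenberg-Marquardt).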

Sequence of human MLKL (full length) (Q8NB16 whole entry): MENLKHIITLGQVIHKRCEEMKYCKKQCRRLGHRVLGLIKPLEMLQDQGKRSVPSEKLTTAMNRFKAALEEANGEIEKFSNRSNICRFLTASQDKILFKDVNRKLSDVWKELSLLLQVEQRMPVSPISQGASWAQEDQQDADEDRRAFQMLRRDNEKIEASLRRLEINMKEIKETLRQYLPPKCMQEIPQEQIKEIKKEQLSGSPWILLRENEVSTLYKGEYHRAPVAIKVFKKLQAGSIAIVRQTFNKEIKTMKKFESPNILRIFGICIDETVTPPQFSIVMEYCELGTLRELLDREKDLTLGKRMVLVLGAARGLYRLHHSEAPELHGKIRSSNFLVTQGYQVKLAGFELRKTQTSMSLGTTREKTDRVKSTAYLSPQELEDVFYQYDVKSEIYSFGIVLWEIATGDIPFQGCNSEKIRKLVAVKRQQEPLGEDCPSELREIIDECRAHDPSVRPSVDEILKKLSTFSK

Structure (SMILES) | Kd [2] [µM] | IC50 ([1]; Table 24) [µM] | IC50 ([1]; Table 27) [µM]
C[C@H](Oc1cc(-c2nn(C)c3c(-c4cnn(C5CCNC(C(F)(F)F)C5)c4)cnc(N)c23)ccc1NS(=O)(=O)C(F)F)c1ccc(F)cc1 (stereo partly drawn) [Compound 149, N-(4-(4-amino-1-methyl-7-(1-(2-(trifluorometh-yl)piperidin-4-yl)-1H-pyrazol-4-yl)-1H-pyrazolo[4,3-c]pyridin-3-yl)-2-((S)-1-(4-fluoro-phenyl)ethoxy)phenyl)-1,1-difluoro-methanesulfonamide] |  | < 1 | 
[2H]C([2H])([2H])N1CCC(n2cc(-c3cnc(N)c4c(-c5ccc(NS(=O)(=O)C(F)F)c(O[C@@H](C)c6ccc(F)cc6)c5)nn(C)c34)cn2)CC1(C)C (stereo partly drawn) [Compound 152, N-(4-(4-amino-7-(1-(2,2-dimethyl-1-(methyl-d3)piperidin-4-yl)-1H-pyrazol-4-yl)-1-methyl-1H-pyrazolo[4,3-c]pyridin-3-yl)-2-((S)-1-(4-fluorophenyl)ethoxy)phenyl)-1,1-difluoromethanesulfonamide] |  | < 1 | 
Cc1ncsc1-c1ccc(CNC(=O)[C@@H]2C[C@@H](O)CN2C(=O)[C@@H](NC(=O)CCCCC#Cc2cnc(N)c3c(-c4ccc(NS(=O)(=O)C(F)F)c(O[C@@H](C)c5ccc(F)cc5)c4)nn(C)c23)C(C)(C)C)cc1 [Compound 1026, (2S,4R)-1-[(2S)-2-(7-{4-amino-3-[4-(difluoromethanesulfonamido)-3-[(1S)-1-(4-fluorophenyl)ethoxy]phenyl]-1-methyl-1H-pyrazolo[4,3-c]pyridin-7-yl}hept-6-ynamido)-3,3-dimethylbutanoyl]-4-hydroxy-N-{[4-(4-methyl-1,3-thiazol-5-yl)phenyl]methyl}pyrrolidine-2-carboxamide] | 0.01 to 1 |  | 1 to 10
Cc1ncsc1-c1ccc(CNC(=O)[C@@H]2C[C@@H](O)CN2C(=O)[C@@H](NC(=O)C2(F)CC2)C(C)(C)C)c(OCCOCCOCCOCCn2cc(-c3cnc(N)c4c(-c5ccc(NS(=O)(=O)C(F)F)c(O[C@@H](C)c6ccc(F)cc6)c5)nn(C)c34)cn2)c1 [Compound 1061, (2S,4R)-N-({2-[2-(2-{2-[2-(4-{4-amino-3-[4-(difluoromethanesulfonamido)-3-[(1S)-1-(4-fluorophenyl)ethoxy]phenyl]-1-methyl-1H-pyrazolo[4,3-c]pyridin-7-yl}-1H-pyrazol-1-yl)ethoxy]ethoxy}ethoxy)ethoxy]-4-(4-methyl-1,3-thiazol-5-yl)phenyl}methyl)-1-[(2S)-2-[(1-fluorocyclopropyl)formamido]-3,3-dimethylbutanoyl]-4-hydroxypyrrolidine-2-carboxamide] | < 0.01 |  | 1 to 10
C[C@H](Oc1cc(-c2nn(C)c3c(-c4cnn(CCCCCCC(=O)Nc5cccc6c5CN(C5CCC(=O)NC5=O)C6=O)c4)cnc(N)c23)ccc1NS(=O)(=O)C(F)F)c1ccc(F)cc1 (stereo partly drawn) [Compound 1062, 7-(4-{4-amino-3-[4-(difluoromethanesulfonamido)-3-[(1S)-1-(4-fluorophenyl)ethoxy]phenyl]-1-methyl-1H-pyrazolo[4,3-c]pyridin-7-yl}-1H-pyrazol-1-yl)-N-[2-(2,6-dioxopiperidin-3-yl)-1-oxo-2,3-dihydro-1H-isoindol-4-yl]heptanamide] | < 0.01 |  | 1 to 10

Continued, in another order:

Kd [2] [µM] | Structure (SMILES) | IC50 ([1]; Table 24) [µM] | IC50 ([1]; Table 27) [µM]
0.01 to 1 | Cc1ncsc1-c1ccc(CNC(=O)[C@@H]2C[C@@H](O)CN2C(=O)[C@@H](NC(=O)CCCCOC(=O)c2ccc(-c3cnc(N)c4c(-c5ccc(NS(=O)(=O)C(F)F)c(O[C@@H](C)c6ccc(F)cc6)c5)nn(C)c34)cc2)C(C)(C)C)cc1 [Compound 1064, 4-{[(2S)-1-[(2S,4R)-4-hydroxy-2-({[4-(4-methyl-1,3-thiazol-5-yl)phenyl]methyl}carbamoyl)pyrrolidin-1-yl]-3,3-dimethyl-1-oxobutan-2-yl]carbamoyl}butyl 4-{4-amino-3-[4-(difluoromethanesulfonamido)-3-[(1 S)-1-(4-fluorophenyl)ethoxy]phenyl]-1-methyl-1H-pyrazolo[4,3-c]pyridin-7-yl}benzoate] |  | 1 to 10
< 0.01 | Cc1ncsc1-c1ccc(CNC(=O)[C@@H]2C[C@@H](O)CN2C(=O)[C@@H](NC(=O)CCCCCn2cc(-c3cnc(N)c4c(-c5ccc(NS(=O)(=O)C(F)F)c(O[C@@H](C)c6ccc(F)cc6)c5)nn(C)c34)cn2)C(C)(C)C)cc1 [Compound 1066, (2S,4R)-1-[(2S)-2-[6-(4-{4-amino-3-[4-(difluoromethanesulfonamido)-3-[(1S)-1-(4-fluorophenyl)ethoxy]phenyl]-1-methyl-1H-pyrazolo[4,3-c]pyridin-7-yl}-1H-pyrazol-1-yl)hexanamido]-3,3-dimethylbutanoyl]-4-hydroxy-N-{[4-(4-methyl-1,3-thiazol-5-yl)phenyl]methyl}pyrrolidine-2-carboxamide] |  | 1 to 10
< 0.01 | Cc1ncsc1-c1ccc(CNC(=O)[C@@H]2C[C@@H](O)CN2C(=O)[C@@H](NC(=O)CCCCCCCn2cc(-c3cnc(N)c4c(-c5ccc(NS(=O)(=O)C(F)F)c(O[C@@H](C)c6ccc(F)cc6)c5)nn(C)c34)cn2)C(C)(C)C)cc1 [Compound 1067, (2S,4R)-1-[(2S)-2-[8-(4-{4-amino-3-[4-(difluoromethanesulfonamido)-3-[(1S)-1-(4-fluorophenyl)ethoxy]phenyl]-1-methyl-1H-pyrazolo[4,3-c]pyridin-7-yl}-1H-pyrazol-1-yl)octanamido]-3,3-dimethylbutanoyl]-4-hydroxy-N-{[4-(4-methyl-1,3-thiazol-5-yl)phenyl]methyl}pyrrolidine-2-carboxamide] |  | < 1
< 0.01 | C[C@H](Oc1cc(-c2nn(C)c3c(-c4cnn(C5CCN(C(=O)c6cccc(C(=O)NC7CCC(=O)NC7=O)c6)CC5)c4)cnc(N)c23)ccc1NS(=O)(=O)C(F)F)c1ccc(F)cc1 (stereo partly drawn) [Compound 1084, 3-[4-(4-{4-amino-3-[4-(difluoromethanesulfonamido)-3-[(1S)-1-(4-fluorophenyl)ethoxy]phenyl]-1-methyl-1H-pyrazolo [4,3-c]pyridin-7-yl}-1H-pyrazol-1-yl)piperidine-1-carbonyl]-N-(2,6-dioxopiperidin-3-yl)benzamide] |  | 1 to 10
< 0.01 | C[C@H](Oc1cc(-c2nn(C)c3c(-c4cnn(C5CCN(C(=O)c6ccc(C(=O)NC7CCC(=O)NC7=O)cc6)CC5)c4)cnc(N)c23)ccc1NS(=O)(=O)C(F)F)c1ccc(F)cc1 (stereo partly drawn) [Compound 1086, 4-[4-(4-{4-amino-3-[4-(difluoromethanesulfonamido)-3-[(1S)-1-(4-fluorophenyl)ethoxy]phenyl]-1-methyl-1H-pyrazolo[4,3-c]pyridin-7-yl}-1H-pyrazol-1-yl)piperidine-1-carbonyl]-N-(2,6-dioxopiperidin-3-yl)benzamide] |  | 1 to 10
< 0.01 | C[C@H](Oc1cc(-c2nn(C)c3c(-c4cnn(C5CCN(C(=O)CC6CN(c7cccc8c7C(=O)N(C7CCC(=O)NC7=O)C8=O)C6)CC5)c4)cnc(N)c23)ccc1NS(=O)(=O)C(F)F)c1ccc(F)cc1 (stereo partly drawn) [Compound 1112, N-[4-(4-amino-7-{1-[1-(2-{1-[2-(2,6-dioxopiperidin-3-yl)-1,3-dioxo-2,3-dihydro-1H-isoindol-4-yl]azetidin-3-yl}acetyl)piperidin-4-yl]-1H-pyrazol-4-yl}-1-methyl-1H-pyrazolo[4,3-c]pyridin-3-yl)-2-[(1S)-1-(4-fluorophenyl)ethoxy]phenyl]-1,1-difluoromethanesulfonamide] |  | 1 to 10
